# Earlier results, collected in patent publication US20100166698A1, “NEW COMPOSITIONS AND METHODS FOR THE TREATMENT OF INFLAMMATION” (University of Virginia Patent Foundation, priority 2005, published 2010).
# Legend:
# TNF-a-stimulated PMN = conditions: adenosine 10 μM
# [1] = test system: TNF-α-stimulated PMN adhering to matrix proteins; conditions: DeLa Harpe, J. Immunol. 143, 596 (1989)
compound,measurement,setting,value
Nc1ncnc2c1ncn2[C@@H]1O[C@H](CO)[C@@H](O)[C@H]1O [adenosine],effect on TNF-a-stimulated PMN adherence to matrix proteins,TNF-a-stimulated PMN,failed to see much of an effect
same,oxidative burst of TNF-α-stimulated PMN adhering to matrix proteins,[1],dramatically decreases
